Assay results published in patent US20130011376A1, “Methods for Enhancing Natural Killer Cell Proliferation and Activity” (GAMIDA CELL LTD., priority 2009, published 2013).
Like-named read-outs stand apart in the source and are kept apart here.

Assays:
[1] = system: peripheral blood CD56+ NK cells; experiment: Proliferation of peripheral blood CD56+ NK cells co-cultured with irradiated feeder cells; assay type: cell-based, human; conditions: 2.5 mM and 5 mM nicotinamide, day 21, irradiated feeder cells 10:1
Text: NK cell cells from total mononuclear cell fraction, purified CD56+ or CD56+CD3− cells from total nuclear or mononuclear cells or from the fraction depleted from CD34+ or CD133+ cells, or CD3+ depleted, or CD3+/CD19+ depleted mononuclear cell fraction from PB, BM and CB can be cultured with irradiated stroma. For the preparation of irradiated stroma (feeder cells), mononuclear cells were irradiated with 3000 rad. After CD56 or CD56+CD3− selection or CD3 depletion the cells were counted and characterized by FACS analysis as described hereinabove. Cells were cultured as described hereinabove, with and without nicotinamide, with and without irradiated stroma at a concentration of irradiated cells of 20×10^5 cells/ml.
(§1) To determine total number of cells on day 7, 14 and 21, the cell count/ml was multiplied by the volume of the culture medium. In order to determine the number of NK cells in culture, the total number of cells in culture was multiplied by the percent of CD56+/CD3− cells measured with the FACS on days 7, 14 or 21. To measure fold expansion, total number of NK cells on days 7, 14 and 21 was divided by total number of NK cells seeded in culture on day-0.
Peripheral blood-derived mononuclear cell fractions were CD3 depleted and then selected for CD56+ cells by immunobead purification. […]

[2] = system: cord blood NK cells (CD56+); experiment: Ex-vivo proliferation of purified cord blood CD56+ NK cells cultured with cytokines and nicotinamide; assay type: cell-based, human; conditions: for proliferation of NK cells relative to growth factors (cytokines) alone: 14 days
Method: Cells were obtained from umbilical cord blood after normal full-term delivery (informed consent was given). Samples were collected and frozen within 24 hours postpartum. Briefly, cord blood was collected by gravity from delivered placentas, the leukocyte-rich fraction was separated by density gradient centrifugation, cells mixed with DMSO (10%) and then frozen at −80° C. Prior to use, the cells were thawed in Dextran buffer (Sigma, St. Louis, Mo., USA) containing 2.5% human serum albumin (HSA) (Bayer Corp. Elkhart, Ind., USA), and the cryoprotectant removed.
Cord blood (CB), bone marrow (BM) or peripheral blood (PB) cells were layered on a Ficoll-Hypaque gradient (1.077 g/mL; Sigma), and centrifuged at 800×g for 30 minutes for separation of the mononuclear cells. The cells in the interface layer were collected and washed three times in phosphate-buffered saline (PBS) (Biological Industries, Israel) containing 0.5% HSA. To purify the CD56+ cells, the mononuclear cell fraction was subjected to two cycles of immunomagnetic bead separation, using a “MiniMACS or CliniMACS CD56 progenitor cell isolation kit” (Miltenyi Biotec Bergisch, Gladbach, Germany), according to the manufacturer's recommendations. Briefly, CD56+ cells are reacted with CD56+ specific magnetic immunobeads, separated and with a magnetic separator, and purified from unbound cells by washing. The purity of the CD56+ population thus obtained is approximately 92%, as evaluated by flow cytometry.
2. Purified CD56+ or CD56+CD3− cells from total nuclear or mononuclear cells or from the fraction depleted from CD34+ or CD133+ cells were cultured in culture bags, T-Flasks or 24 well plates at a concentration of 1-100×10^4 cells/ml in MEMα/10% FCS or CellGro SCGM (Cell Genix)/5% Human Serum/LiforCell® FBS Replacement (Lifeblood Products) containing the following human recombinant cytokines:, interleukin-2 (IL-2) (5-50 ng/ml), interleukin-15 (IL-15), FLT-3 or SCF or FLT3 and SCF or IL-2 and IL-15 or IL-2 only (Perpo Tech, Inc., Rocky Hill, N.J., USA), with or without nicotinamide, and incubated at 37° C. in a humidified atmosphere of 5% CO2 in air. The cultures were topped up once or twice a week with the same volume of fresh medium containing growth factors with or without nicotinamide. Eventually cultures can be supplemented once or several times a week with IL-2 and or IL-2 and IL-15. To estimate the number of cells in culture, cell samples were stained with trypan blue for counting. At various time points, samples were taken for FACS analysis to assay the relative fractions of NK cells, CD56+CD3−, CD56+CD3+, CD34+CD56+, CD56+CD16+ and/or CD56+ NKG2A cells.
In order to calculate the number of NK cells on day 0, the total number of cells seeded on day 0 was multiplied by the percent of CD56+/CD3− cells measured by the FACS on day 0.
as §1

K562 target cells = assay type: cell-based
Method: (§2) “Killing” assay: NK cells (effectors cells=E) are combined with K562 or BL2 (target cells=T), or bi-phenotypic leukemia cells at different E to T ratio (E:T). BL2 or K562, or bi-phenotypic leukemia target cells in PBS were labeled with 1 ng/ml CFSE (Invitrogen) for 15 min at 37° C. Calf Serum was added to the cells for 15 minutes, the cells were then washed and resuspended in RPMI medium. 100 μL of bi-phenotypic leukemia, BL2 or K562 cells were placed in a 96 round bottom plate at a concentration of 5×10^3 cells per well. 100 μL of non-stained NK cells were added to the bi-phenotypic leukemia, BL2 or K562 cells at a E:T ratio of 1:1, 2.5:1, 5:1, 10:1 or 20:1 (5×10^3, 1.25×10^4, 2.5×10^4, 5×10^4 and 1×10^5 cells/well, respectively, as indicated). Between 2-48 hours later. Killing of target cells in cell lines such as K562 and BL-2 was determined by FACS as a percentage propidium-iodine (PI)-positive (dead) CFSE-labeled cells. Killing of the primary leukemia cells was determined by counting with the FACS the number of CFSE stained cells that remained in the culture after their culture with the NK cells. A lower number of CFSE+ cells is indicative of higher level of killing.

[3] = system: human primary bi-phenotypic leukemia cells; assay type: cell-based; conditions: after 24 hours, NK cells of 2 donors (Donor A and Donor B)
Method: as §2

BL2 target cells = assay type: cell-based; conditions: 2.5 mM or 5.0 mM nicotinamide for 3 weeks; E:T 1:1 to 10:1
Method: as §2

In the case of `NC(=O)c1cccnc1` [nicotinamide], the “fold increase of NK cells relative to control (cytokines+irradiated mononuclear cells)” value [1] is reported as “at least 4 times”, the “NK cell proliferation relative to growth factors (cytokines) alone” value ([2]; 0.5 mM to 5 mM nicotinamide, three weeks culture) is reported as “up to 2.5 times” and the “proliferation of NK cells relative to growth factors (cytokines) alone” value ([2]; 2.5 mM nicotinamide, IL-2 and IL-15) is reported as “greater than 4 times”. For the same molecule, the “proliferation of NK cells relative to growth factors (cytokines) alone” value ([2]; 5 mM nicotinamide, compared with 2.5 mM) was “even greater”, the “expansion of cord blood CD56+ NK cultures vs cytokine-only controls” value ([2]; 1 to 7.5 mM nicotinamide, up to 3 weeks, Flt-3, IL-2 and IL-15) was “dose-dependent increase in the expansion” and the “proliferation of NK cells” value ([2]; all concentrations tested, as early as 14 days of culture) was “significantly enhanced proliferation”. For the same molecule, the “killing (cytotoxic) potential vs cells cultured in growth factors only” value (K562 target cells; 2.5 mM or 5.0 mM nicotinamide for 3 weeks, E:T 1:1 to 10:1) was “far greater”, the “killing (cytotoxic) potential vs cells cultured in growth factors only” value (K562 target cells; E:T ratios of 1:5, 1:10 and 1:20 NK cells per target) was “far greater” and the “cytotoxic potential of expanded NK cells” value [3] was “increased activation of NK cells killing potential”. For the same molecule, the “killing (cytotoxic) potential vs cells cultured in growth factors only” value (BL2 target cells) was “far greater”.
